Measured values published in the supplement of paper PMC7287046.

What was measured:
Details in all cases: exposure time: 72 h
AM38 [1] = tested on: AM38
Experimental: (§1)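 Glioma cell lines and primary cultures were treated with single drugs in a nine-step threefold dilution series, about 72 h. Viability was read by CellTiter-Glo and normalised to untreated controls. Absolute IC50 was fitted in GraphPad Prism; values beyond the tested dose range are censored at the block's top or lowest dose.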

KNS42 [2] = tested on: KNS42
Experimental: as §1

SF268 [3] = tested on: SF268
Experimental: as §1

SF539 [4] = tested on: SF539
Experimental: as §1

SNB75 [5] = tested on: SNB75
Experimental: as §1

T98 [6] = tested on: T98
Experimental: as §1

U118 [7] = tested on: U118
Experimental: as §1

U251 [8] = tested on: U251
Experimental: as §1

U87 [9] = tested on: U87
Experimental: as §1

CAS-1 = tested on: CAS-1
Experimental: as §1

AM-38 [10] = assay: HSA synergy score (Combenefit); higher = more synergy
In short: (§2)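 Each drug's dilution series was topped at its own IC50. Pairs were combined on glioma cell lines as 6 × 6 twofold-dilution matrices in 96-well plates, dosed 24 h after plating, with a sixfold untreated control, and read three days later at least in triplicate. CellTiter-Glo viability, given as percent of DMSO controls, was normalised, and Combenefit then yielded Loewe, Bliss and highest single agent synergy scores.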

KNS-42 [11] = assay: as above
In short: as §2

SF268 [12] = assay: as above
In short: as §2

SF539 [13] = assay: as above
In short: as §2

SNB75 [14] = assay: as above
In short: as §2

T98G [15] = assay: as above
In short: as §2

U118 [16] = assay: as above
In short: as §2

U251 [17] = assay: as above
In short: as §2

U87 [18] = assay: as above
In short: as §2

AM38 [19] = assay: Chou-Talalay combination index (dimensionless); higher = less synergy (more antagonism)
In short: (§3)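 Two drugs were combined in a 6 × 6 grid of twofold dilutions on glioma cells plated 24 h earlier in 96-well plates, with low-adhesion plates for primary cultures. Each dilution series was capped at the drug's single-drug IC50. After three days, CellTiter-Glo readings were taken at least in triplicate. The Chou–Talalay combination index was calculated by the median effect principle from single and combined viabilities, given as percent of DMSO controls.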

KNS42 [20] = assay: as above
In short: as §3

SF268 [21] = assay: as above
In short: as §3

SF539 [22] = assay: as above
In short: as §3

SNB75 [23] = assay: as above
In short: as §3

T98 [24] = assay: as above
In short: as §3

U118 [25] = assay: as above
In short: as §3

U251 [26] = assay: as above
In short: as §3

U87 [27] = assay: as above
In short: as §3

AM-38 [28] = assay: Bliss synergy score (Combenefit); higher = more synergy; extreme values may be limits of the assay
In short: as §2

KNS-42 [29] = assay: as above
In short: as §2

SF268 [30] = assay: as above
In short: as §2

SF539 [31] = assay: as above
In short: as §2

SNB75 [32] = assay: as above
In short: as §2

T98G [33] = assay: as above
In short: as §2

U118 [34] = assay: as above
In short: as §2

U251 [35] = assay: as above
In short: as §2

U87 [36] = assay: as above
In short: as §2

AM-38 [37] = assay: Loewe synergy score (Combenefit); higher = more synergy; extreme values may be limits of the assay
In short: as §2

KNS-42 [38] = assay: as above
In short: as §2

SF268 [39] = assay: as above
In short: as §2

SF539 [40] = assay: as above
In short: as §2

SNB75 [41] = assay: as above
In short: as §2

T98G [42] = assay: as above
In short: as §2

U118 [43] = assay: as above
In short: as §2

U251 [44] = assay: as above
In short: as §2

U87 [45] = assay: as above
In short: as §2

With N#CC(c1ccnc(NCCc2cccnc2)n1)c1nc2ccccc2s1 (configuration not stated) the “IC50 (absolute, viability)” value (AM38 [1]) was 10 µM, the “IC50 (absolute, viability)” value (KNS42 [2]) was 27.3 µM and the “IC50 (absolute, viability)” value (SF268 [3]) was 7.05 µM. For the same compound, the “IC50 (absolute, viability)” value (SF539 [4]) was 3.71 µM, the “IC50 (absolute, viability)” value (SNB75 [5]) was 13.1 µM and the “IC50 (absolute, viability)” value (T98 [6]) was 7.19 µM. For the same compound, the “IC50 (absolute, viability)” value (U118 [7]) was 20.1 µM, the “IC50 (absolute, viability)” value (U251 [8]) was 11.3 µM and the “IC50 (absolute, viability)” value (U87 [9]) was 24.5 µM.
C#Cc1cccc(Nc2ncnc3cc(OCCOC)c(OCCOC)cc23)c1 [Erlotinib] was tested, and the “IC50 (absolute, viability)” value (AM38 [1]) was 27.8 µM, the “IC50 (absolute, viability)” value (CAS-1) was over 50 µM and the “IC50 (absolute, viability)” value (KNS42 [2]) was 27.2 µM. The “IC50 (absolute, viability)” value (SF268 [3]) was 38.1 µM, the “IC50 (absolute, viability)” value (SF539 [4]) was 25 µM and the “IC50 (absolute, viability)” value (SNB75 [5]) was 15 µM. For the same compound, the “IC50 (absolute, viability)” value (T98 [6]) was 27.5 µM, the “IC50 (absolute, viability)” value (U118 [7]) was 35.5 µM and the “IC50 (absolute, viability)” value (U87 [9]) was 11.6 µM.
Compound CC(=O)O[C@@]12CO[C@@H]1C[C@H](O)[C@@]1(C)C(=O)[C@H](O)C3=C(C)[C@@H](OC(=O)[C@H](O)[C@@H](NC(=O)OC(C)(C)C)c4ccccc4)C[C@@](O)([C@@H](OC(=O)c4ccccc4)[C@H]21)C3(C)C [Docetaxel] + O=c1[nH]c2ccccc2n1C1CCN(Cc2ccc(-c3[nH]c4cc5ncnc5cc4nc3-c3ccccc3)cc2)CC1 [Akt inhibitor VIII] has an HSA synergy score (AM-38 [10]) of 11, an HSA synergy score (KNS-42 [11]) of 15.2 and an HSA synergy score (SF268 [12]) of 11.6. It also gave an HSA synergy score (SF539 [13]) of 2.57, an HSA synergy score (SNB75 [14]) of 6.81 and an HSA synergy score (T98G [15]) of 0. For the same compound, the HSA synergy score (U118 [16]) was 8.23, the HSA synergy score (U251 [17]) was 0.629 and the HSA synergy score (U87 [18]) was 4.37. It also gave a Chou-Talalay combination index (AM38 [19]) of 0.894, a Chou-Talalay combination index (KNS42 [20]) of 0.838 and a Chou-Talalay combination index (SF268 [21]) of 0.885. It also gave a Chou-Talalay combination index (SF539 [22]) of 0.939, a Chou-Talalay combination index (SNB75 [23]) of 0.796 and a Chou-Talalay combination index (T98 [24]) of 0.84. The Chou-Talalay combination index (U118 [25]) was 0.9, the Chou-Talalay combination index (U251 [26]) was 0.933 and the Chou-Talalay combination index (U87 [27]) was 0.625. It also gave a Bliss synergy score (AM-38 [28]) of 0.132, a Bliss synergy score (KNS-42 [29]) of 1.6 and a Bliss synergy score (SF268 [30]) of 1.32. The Bliss synergy score (SF539 [31]) was 0.217, the Bliss synergy score (SNB75 [32]) was 0.989 and the Bliss synergy score (T98G [33]) was 0. The Bliss synergy score (U118 [34]) was 5.46, the Bliss synergy score (U251 [35]) was 0.156 and the Bliss synergy score (U87 [36]) was 1.56. The Loewe synergy score (AM-38 [37]) was 5.53, the Loewe synergy score (KNS-42 [38]) was 10.8 and the Loewe synergy score (SF268 [39]) was 3.03. The Loewe synergy score (SF539 [40]) was 1.09, the Loewe synergy score (SNB75 [41]) was 0.96 and the Loewe synergy score (T98G [42]) was 0. For the same compound, the Loewe synergy score (U118 [43]) was 3.76, the Loewe synergy score (U251 [44]) was 0 and the Loewe synergy score (U87 [45]) was 2.83.
In the case of CO[C@H]1C[C@@H]2CC[C@@H](C)[C@@](O)(O2)C(=O)C(=O)N2CCCC[C@H]2C(=O)O[C@H]([C@H](C)C[C@@H]2CC[C@@H](O)[C@H](OC)C2)CC(=O)[C@H](C)/C=C(\C)[C@@H](O)[C@@H](OC)C(=O)[C@H](C)C[C@H](C)/C=C/C=C/C=C/1C [Rapamycin], the “IC50 (absolute, viability)” value (AM38 [1]) is reported as under 0.00302 µM, the “IC50 (absolute, viability)” value (KNS42 [2]) is reported as over 6.6 µM and the “IC50 (absolute, viability)” value (SF539 [4]) is reported as under 0.00302 µM. For the same compound, the “IC50 (absolute, viability)” value (SNB75 [5]) was over 6.6 µM, the “IC50 (absolute, viability)” value (T98 [6]) was under 0.00302 µM and the “IC50 (absolute, viability)” value (U118 [7]) was over 6.6 µM.
For CCC(=O)N1CCN(c2ccc(-n3c(=O)ccc4cnc5ccc(-c6cnc7ccccc7c6)cc5c43)cc2C(F)(F)F)CC1 [Torin1] + N#CC(c1ccnc(NCCc2cccnc2)n1)c1nc2ccccc2s1 [AS601245], the HSA synergy score (AM-38 [10]) was 0, the HSA synergy score (KNS-42 [11]) was 1.23 and the HSA synergy score (SF268 [12]) was 3.85. The HSA synergy score (SF539 [13]) was 11.4, the HSA synergy score (SNB75 [14]) was 0.213 and the HSA synergy score (T98G [15]) was 0.235. It also gave an HSA synergy score (U118 [16]) of 2.19, an HSA synergy score (U251 [17]) of 2.53 and an HSA synergy score (U87 [18]) of 0. For the same compound, the Chou-Talalay combination index (AM38 [19]) was 1.32, the Chou-Talalay combination index (KNS42 [20]) was 1.02 and the Chou-Talalay combination index (SF268 [21]) was 0.963. It also gave a Chou-Talalay combination index (SF539 [22]) of 0.864, a Chou-Talalay combination index (SNB75 [23]) of 1.11 and a Chou-Talalay combination index (T98 [24]) of 0.962. The Chou-Talalay combination index (U118 [25]) was 1.07, the Chou-Talalay combination index (U251 [26]) was 0.948 and the Chou-Talalay combination index (U87 [27]) was 2.44. It also gave a Bliss synergy score (AM-38 [28]) of 0, a Bliss synergy score (KNS-42 [29]) of 0 and a Bliss synergy score (SF268 [30]) of 0.983. The Bliss synergy score (SF539 [31]) was 4.4, the Bliss synergy score (SNB75 [32]) was 0 and the Bliss synergy score (T98G [33]) was 0. It also gave a Bliss synergy score (U118 [34]) of 0, a Bliss synergy score (U251 [35]) of 0.142 and a Bliss synergy score (U87 [36]) of 0. For the same compound, the Loewe synergy score (AM-38 [37]) was 0, the Loewe synergy score (KNS-42 [38]) was 0 and the Loewe synergy score (SF268 [39]) was 0.416. For the same compound, the Loewe synergy score (SF539 [40]) was 2.66, the Loewe synergy score (SNB75 [41]) was 0 and the Loewe synergy score (T98G [42]) was 0.121. For the same compound, the Loewe synergy score (U118 [43]) was 2.14, the Loewe synergy score (U251 [44]) was 0.0482 and the Loewe synergy score (U87 [45]) was 0.
Cc1cc([C@@H](C)Nc2ccccc2C(=O)O)c2nc(N3CCOCC3)cc(=O)n2c1 [AZD6482] + CCOc1nc(NC(=O)Cc2cc(OC)ccc2OC)cc(N)c1C#N [JNK inhibitor VIII] was tested, and the HSA synergy score (AM-38 [10]) was 17, the HSA synergy score (KNS-42 [11]) was 0.866 and the HSA synergy score (SF268 [12]) was 4.35. The HSA synergy score (SF539 [13]) was 7.49, the HSA synergy score (SNB75 [14]) was 6.97 and the HSA synergy score (T98G [15]) was 11.5. The HSA synergy score (U118 [16]) was 8.89, the HSA synergy score (U251 [17]) was 0.00428 and the HSA synergy score (U87 [18]) was 1. The Chou-Talalay combination index (AM38 [19]) was 0.77, the Chou-Talalay combination index (KNS42 [20]) was 0.994 and the Chou-Talalay combination index (SF268 [21]) was 0.792. It also gave a Chou-Talalay combination index (SF539 [22]) of 0.545, a Chou-Talalay combination index (SNB75 [23]) of 1 and a Chou-Talalay combination index (T98 [24]) of 0.758. It also gave a Chou-Talalay combination index (U118 [25]) of 0.669, a Chou-Talalay combination index (U251 [26]) of 0.731 and a Chou-Talalay combination index (U87 [27]) of 0.576. The Bliss synergy score (AM-38 [28]) was 14.5, the Bliss synergy score (KNS-42 [29]) was 0.255 and the Bliss synergy score (SF268 [30]) was 0.107. For the same compound, the Bliss synergy score (SF539 [31]) was 0.0312, the Bliss synergy score (SNB75 [32]) was 6.97 and the Bliss synergy score (T98G [33]) was 10.8. It also gave a Bliss synergy score (U118 [34]) of 2.95, a Bliss synergy score (U251 [35]) of 0.00428 and a Bliss synergy score (U87 [36]) of 1. It also gave a Loewe synergy score (AM-38 [37]) of 15.4, a Loewe synergy score (KNS-42 [38]) of 0.866 and a Loewe synergy score (SF268 [39]) of 0.654. The Loewe synergy score (SF539 [40]) was 1.84, the Loewe synergy score (SNB75 [41]) was 6.97 and the Loewe synergy score (T98G [42]) was 11.5. It also gave a Loewe synergy score (U118 [43]) of 2.68, a Loewe synergy score (U251 [44]) of 0.00428 and a Loewe synergy score (U87 [45]) of 1.
